Results as given in patent US20260242390A1, “TOTAL SYNTHESES OF PORTIMINE A AND ANALOGUES THEREOF AS SMALL MOLECULE MODULATORS OF NMD3” (priority 2023, published 2026).

Test system: Jurkat cells
Test: Immunoblot of caspase 3 in Jurkat cells
Format: cell-based, human
Conditions: for cell apoptosis / Caspase 3 activation: Jurkat 5M per well, 2 nM-1000 nM, 12 hours; for cell apoptosis, immunoblot of caspase 3: Jurkat cells, 12 hours at 10 nM; for caspase-3 cleavage in Jurkat cells: dose-dependent, immunoblot
From the text: FIG. 1. Portimine A is non-toxic to primary human PBMCs. Portimine A and its functional analogs show stereo-selective acute toxicity in cancer cells. […] (B) Structure of portimine related analogs: phenyl-portimine A (Ph-PA, 36) and epi-portimine A (ePA, 38). Structure of fully functionalized portimine A-based epimeric probe pair: portimine A-diazirine-alkyne (PA-DA, 35-2) and epi-portimine A-diazirine-alkyne (ePA-DA, 35-1). (C) Cell viability analysis of portimine A and analogs. Jurkat cells were treated with increasing concentrations of portimine A and analogs for 24 hours. All presented data as mean of biological replicated experiments (n=3). […] Jurkat cells were treated with portimine A or analogs for 12 hours at 10 nM.
FIG. 3. Initial SAR studies: Assessing activity of PAL functionalized PTMA analogs. […] (A) PA and Ph-PA show less toxic to healthy PBMCs compared to Jurkat cells. […] (B) Immunoblot of caspase-3 in Jurkat and PBMCs with indicated conditions.
FIG. 5. […] (I, J) Confirmation of PA-DA engagement of NMD3 in Jurkat and HCC1806 cells. […] Treatment condition: Jurkat (5M per well). Portimine A concentration: 2 nM-1000 nM; In total treat cell for 12 hours.
• 1) Portimine A and its functional analogs show stereo-selective acute toxicity in cancer cells (FIG. 1). […] (B) Structure of portimine related analogs: phenyl-portimine A (Ph-PA, 36) and epi-portimine A (ePA, 38). Structure of fully functionalized portimine A-based epimeric probe pair: portimine A-diazirine-alkyne (PA-DA, 35-2) and epi-portimine A-diazirine-alkyne (ePA-DA, 35-1). (C) Cell viability analysis of portimine A and analogs. Jurkat cells were treated with increasing concentrations of portimine A and analogs for 24 hours. All presented data as mean of biological replicated experiments (n=3). […] Jurkat cells were treated with portimine A or analogs for 12 hours at 10 nM. […] Structurally related negative control ePA and PB are non-toxic in all cell types in the current concentrate range. PBMCs (25k per well), Jurkat (10k per well). […] Cell cycle analysis in Jurkat cells (FIG. 2). Jurkat cells were treated with 10 nM of indicated compounds for 24 hours, and propodium iodide was used to identify different stages of cells by flow cytometry. […] (A) PA and Ph-PA show less toxic to healthy PBMCs compared to Jurkat cells. […] (B) Immunoblot of caspase-3 in Jurkat and PBMCs with indicated conditions. […] (A) Pharmacokinetic studies of mouse intraperitoneal (i.p.) and oral (p.o.) administration for portimine (n=3). […] Impact of PA [0.3 or 1 mg/kg intraperitoneally] on MC38 tumor growth in WT mice (n=6). (C) Kaplan-Myer survival curve of WT MC38 tumor-bearing mice (n=6) after treatment with PA as described in (D). Mice were euthanized when tumor area exceeded 2000 mm^3. Statistical analysis was performed using ANOVA analysis followed by multiple comparisons test, * p≤0.05. Treatment condition: Jurkat (60 M per condition); PA-DA/ePA-DA concentration: 0.5 uM, PA or ePA: 5 uM; Incubate with probe with or without competitors (PA, ePA) for 30 min; UV irradiated for 20 min. (0.5 uM PA-DA add a no-UV condition), Standard pulldown & biotin-enrichment and western blot analysis (Elute condition: 2× sample buffer+500 uM biotin, boil for 20 mins); Primary antibody NMD3 (ProteinTech, 1:150), Actin (BioRad, 1:10000). […] Chemical proteomic profiling with PA-DA in Jurkat cells (A, B, C, G) and HCC1806 cells (D, E, F, H) show NMD3 is the primary target candidate of portimine A. Volcano plot in panels A and D show protein competition in cells treated with active photoaffinity probe PA-DA (500 nM) and DMSO or the active competitor portimine A (PA, […]), dotted lines indicate threshold of fold change <4, p-value>0.05. […] (I, J) Confirmation of PA-DA engagement of NMD3 in Jurkat and HCC1806 cells. […] Treatment condition: Jurkat (5M per well). Portimine A concentration: 2 nM-1000 nM; In total treat cell for 12 hours. […] Protein degradation of p53, Mcl1, Bid, Bim, Noxa can be rescued by MG132 or Epoxomicin. […]

SMILES | cell apoptosis / Caspase 3 activation | cell apoptosis, immunoblot of caspase 3 | caspase-3 cleavage in Jurkat cells
C=CC1=C[C@@H]2[C@@H]3O[C@]4(CC[C@H](O4)C(C)C[C@@H](O)C3=O)CC(O)C3=NCC[C@@]32CC1 (stereo partly shown) [PA, portimine A] | causes cell apoptosis in dose-dependent manner | induce cell apoptosis | induced caspase-3 cleavage in a dose-dependent manner
C#CCCC1(CCNC(=O)c2ccc(C3=C[C@@H]4[C@@H]5O[C@]6(CC[C@H](O6)C(C)C[C@@H](O)C5=O)CC(O)C5=NCC[C@@]54CC3)cc2)N=N1 (stereo partly shown) [PA-DA, portimine A-diazirine-alkyne] |  | induce cell apoptosis | induced caspase-3 cleavage in a dose-dependent manner
C=CC1=C[C@@H]2[C@@H]3OC4(CC[C@H](O4)C(C)C[C@@H](O)C3=O)CC(=O)C3=NCC[C@@]32CC1 (stereo partly shown) [PB, portimine B] |  | do not | 
CC1C[C@@H](O)C(=O)[C@H]2O[C@]3(CC[C@@H]1O3)CC(O)C1=NCC[C@@]13CCC(c1ccccc1)=C[C@H]23 (stereo partly shown) [Ph-PA, phenyl-portimine A] |  | induce cell apoptosis | 
C=CC1=C[C@@H]2[C@@H]3O[C@]4(CC[C@H](O4)C(C)C[C@@H](O)C3=O)C[C@@H](O)C3=NCC[C@@]32CC1 (stereo partly drawn) [ePA, epi-portimine A] | does not show significant Caspase 3 activation | do not | 
C#CCCC1(CCNC(=O)c2ccc(C3=C[C@@H]4[C@@H]5O[C@]6(CC[C@H](O6)C(C)C[C@@H](O)C5=O)C[C@@H](O)C5=NCC[C@@]54CC3)cc2)N=N1 (stereo partly drawn) [ePA-DA, epi-portimine A-diazirine-alkyne] |  | do not | 
